# Measured values published in patent US10479780B2, “Aminopyrazole derivatives” (Chugai Seiyaku Kabushiki Kaisha, priority 2015, dated 2019).
# Experiments:
# Type in all cases: biochemical
# human Lck enzyme = target: T1, human Lck enzyme (Homo sapiens, UniProt P06239); assay: Lck enzyme inhibitory activity (time-resolved fluorometry, biotinylated peptide phosphorylation); details: biotinylated peptide phosphorylation, read-out: LCK_IC50
# T1 construct: purchased Carna Biosciences, Inc. 08-170
# Description: (§1) 3. Lck Enzyme Inhibitory Activity Lck inhibitory activity was determined based on activity of inhibiting phosphorylation reaction of a biotinylated peptide (EGPWLEEEEEAYGWMDF) using a human Lck enzyme (manufactured by Carna Biosciences, Inc., cat 08-170). The phosphorylated biotinylated peptide was detected by time-resolved fluorometry using an anti-phosphorylated tyrosine antibody conjugated to europium cryptate, and streptavidin conjugated to XL665, an allophycocyanin derivative. The 50% inhibitory concentration (IC50) was calculated from the inhibition rate relative to the control group without containing the test substance.
# human Src enzyme = target: T2, human Src enzyme (Homo sapiens, UniProt P12931); assay: Src enzyme inhibitory activity (time-resolved fluorometry, biotinylated peptide phosphorylation); details: biotinylated peptide phosphorylation, read-out: SRC_IC50
# T2 construct: purchased Carna Biosciences, Inc. 08-173
# Description: as §1, with “2. Src” for “3. Lck”, “Src” for “Lck”, “08-173).” for “08-170).”
# human Yes1 enzyme = target: T3, human Yes1 enzyme (Homo sapiens, UniProt P07947); assay: Yes1 enzyme inhibitory activity (time-resolved fluorometry, biotinylated peptide phosphorylation); details: biotinylated peptide phosphorylation, read-out: YES_IC50
# T3 construct: made in house
# Description: as §1, with “1. Yes1” for “3. Lck”, “Yes1” for “Lck”, “prepared using a baculovirus expression system.” for “(manufactured by Carna Biosciences, Inc., cat 08-170).”
# T2 sequence (P12931 whole entry): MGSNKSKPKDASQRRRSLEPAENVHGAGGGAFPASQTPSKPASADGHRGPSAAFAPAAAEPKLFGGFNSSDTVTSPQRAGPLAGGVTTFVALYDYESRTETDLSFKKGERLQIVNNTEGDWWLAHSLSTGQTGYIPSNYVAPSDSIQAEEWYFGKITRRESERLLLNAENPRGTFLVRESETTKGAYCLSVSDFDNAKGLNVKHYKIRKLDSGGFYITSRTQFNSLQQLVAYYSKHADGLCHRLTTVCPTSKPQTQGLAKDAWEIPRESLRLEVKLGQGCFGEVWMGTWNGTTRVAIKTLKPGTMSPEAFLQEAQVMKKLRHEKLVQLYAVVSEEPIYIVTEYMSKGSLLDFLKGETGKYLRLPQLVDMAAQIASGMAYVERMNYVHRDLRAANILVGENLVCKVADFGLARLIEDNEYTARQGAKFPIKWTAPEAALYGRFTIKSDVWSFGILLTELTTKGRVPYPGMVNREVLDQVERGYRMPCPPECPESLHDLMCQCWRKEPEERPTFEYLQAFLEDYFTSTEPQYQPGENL
# T1 sequence (P06239 whole entry): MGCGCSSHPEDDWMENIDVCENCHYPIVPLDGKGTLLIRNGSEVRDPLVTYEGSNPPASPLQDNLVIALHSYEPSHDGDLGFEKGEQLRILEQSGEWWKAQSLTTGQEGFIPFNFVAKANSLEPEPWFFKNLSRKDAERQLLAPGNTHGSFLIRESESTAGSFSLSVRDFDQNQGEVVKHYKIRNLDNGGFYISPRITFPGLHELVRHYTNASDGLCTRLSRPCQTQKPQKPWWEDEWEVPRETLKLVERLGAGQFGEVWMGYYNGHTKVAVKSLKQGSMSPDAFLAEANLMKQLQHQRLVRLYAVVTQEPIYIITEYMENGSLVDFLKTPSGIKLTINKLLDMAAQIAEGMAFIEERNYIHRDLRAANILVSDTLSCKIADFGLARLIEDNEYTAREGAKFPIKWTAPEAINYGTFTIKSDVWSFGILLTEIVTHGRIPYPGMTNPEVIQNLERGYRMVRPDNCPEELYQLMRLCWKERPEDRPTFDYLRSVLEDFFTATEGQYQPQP
# T3 sequence (P07947 whole entry): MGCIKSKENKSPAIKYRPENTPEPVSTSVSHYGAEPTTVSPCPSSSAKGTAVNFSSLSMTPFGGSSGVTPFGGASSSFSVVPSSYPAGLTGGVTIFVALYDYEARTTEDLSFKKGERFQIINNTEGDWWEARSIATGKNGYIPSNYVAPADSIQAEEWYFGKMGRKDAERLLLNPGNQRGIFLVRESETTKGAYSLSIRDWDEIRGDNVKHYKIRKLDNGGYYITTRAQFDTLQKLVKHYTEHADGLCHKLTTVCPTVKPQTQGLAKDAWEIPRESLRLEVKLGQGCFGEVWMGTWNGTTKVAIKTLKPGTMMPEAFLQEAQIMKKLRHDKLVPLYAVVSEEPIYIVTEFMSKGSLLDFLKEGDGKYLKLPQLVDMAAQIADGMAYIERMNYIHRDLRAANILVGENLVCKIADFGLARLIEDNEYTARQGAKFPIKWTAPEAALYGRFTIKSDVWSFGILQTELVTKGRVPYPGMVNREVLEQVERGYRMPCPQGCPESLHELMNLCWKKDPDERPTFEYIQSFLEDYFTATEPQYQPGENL
smiles,measurement,setting,value
"COc1cc2cc(C(=O)c3cnn(-c4ccc(Oc5ccccc5F)cc4C)c3N)[nH]c2cc1NS(C)(=O)=O [Example 4-1-004, N-[2-[5-Amino-1-[4-(2-fluorophenoxy)-2-methylphenyl]pyrazole-4-carbonyl]-5-methoxy-1H-indol-6-yl]methanesulfonamide]",IC50,human Lck enzyme,3.4 nM
same,IC50,human Src enzyme,21 nM
same,IC50,human Yes1 enzyme,0.52 nM
"COc1cc2cc(C(=O)c3cnn(-c4ccc(Oc5cccc(F)c5F)cc4C)c3N)[nH]c2cc1NS(C)(=O)=O [Example 4-1-005, N-[2-[5-amino-1-[4-(2,3-difluorophenoxy)-2-methylphenyl]pyrazole-4-carbonyl]-5-methoxy-1H-indol-6-yl]methanesulfonamide]",IC50,human Lck enzyme,7.8 nM
same,IC50,human Src enzyme,63 nM
same,IC50,human Yes1 enzyme,1 nM
"COc1cc2cc(C(=O)c3cnn(-c4c(C)cc(Oc5ccccc5F)cc4F)c3N)[nH]c2cc1NS(C)(=O)=O [Example 4-1-006, N-[2-[5-amino-1-[2-fluoro-4-(2-fluorophenoxy)-6-methylphenyl]pyrazole-4-carbonyl]-5-methoxy-1H-indol-6-yl]methanesulfonamide]",IC50,human Lck enzyme,11 nM
same,IC50,human Src enzyme,74 nM
same,IC50,human Yes1 enzyme,1.8 nM
"COc1cc2cc(C(=O)c3cnn(-c4c(C)cc(Oc5ccccc5)cc4F)c3N)[nH]c2cc1NS(C)(=O)=O [Example 4-1-007, N-[2-[5-amino-1-(2-fluoro-6-methyl-4-phenoxyphenyl)pyrazole-4-carbonyl]-5-methoxy-1H-indol-6-yl]methanesulfonamide]",IC50,human Lck enzyme,7.5 nM
same,IC50,human Src enzyme,61 nM
same,IC50,human Yes1 enzyme,1.1 nM
"COc1cc2cc(C(=O)c3cnn(-c4cnc(Oc5ccccc5F)cc4C)c3N)[nH]c2cc1NS(C)(=O)=O [Example 4-1-008, N-[2-[5-amino-1-[6-(2-fluorophenoxy)-4-methylpyridin-3-yl]pyrazole-4-carbonyl]-5-methoxy-1H-indol-6-yl]methanesulfonamide]",IC50,human Lck enzyme,4 nM
same,IC50,human Src enzyme,52 nM
same,IC50,human Yes1 enzyme,0.69 nM
"COc1cc2cc(C(=O)c3cnn(-c4cnc(Oc5c(F)cccc5F)cc4C)c3N)[nH]c2cc1NS(C)(=O)=O [Example 4-1-009, N-[2-[5-amino-1-[6-(2,6-difluorophenoxy)-4-methylpyridin-3-yl]pyrazole-4-carbonyl]-5-methoxy-1H-indol-6-yl]methanesulfonamide]",IC50,human Lck enzyme,4.5 nM
same,IC50,human Src enzyme,59 nM
same,IC50,human Yes1 enzyme,1.1 nM
"COc1cc2cc(C(=O)c3cnn(-c4cnc(Oc5ccccc5Cl)cc4C)c3N)[nH]c2cc1NS(C)(=O)=O [Example 4-1-010, N-[2-[5-amino-1-[6-(2-chlorophenoxy)-4-methylpyridin-3-yl]pyrazole-4-carbonyl]-5-methoxy-1H-indol-6-yl]methanesulfonamide]",IC50,human Lck enzyme,25 nM
same,IC50,human Src enzyme,46 nM
same,IC50,human Yes1 enzyme,1.1 nM
"COc1cc2cc(C(=O)c3cnn(-c4cnc(Oc5cccc(Cl)c5)cc4C)c3N)[nH]c2cc1NS(C)(=O)=O [Example 4-1-011, N-[2-[5-amino-1-[6-(3-chlorophenoxy)-4-methylpyridin-3-yl]pyrazole-4-carbonyl]-5-methoxy-1H-indol-6-yl]methanesulfonamide]",IC50,human Lck enzyme,41 nM
same,IC50,human Src enzyme,170 nM
same,IC50,human Yes1 enzyme,5.5 nM
"Cc1cc(Oc2c(F)cccc2F)ncc1-n1ncc(C(=O)c2cc3cc(OC(F)F)c(C4CCN(C(=O)OC(C)(C)C)CC4)cc3[nH]2)c1N [Example 4-1-012, tert-butyl 4-[2-[5-amino-1-[6-(2,6-difluorophenoxy)-4-methylpyridin-3-yl]pyrazole-4-carbonyl]-5-(difluoromethoxy)-1H-indol-6-yl]piperidine-1-carboxylate]",IC50,human Lck enzyme,39 nM
same,IC50,human Src enzyme,90 nM
same,IC50,human Yes1 enzyme,34 nM
"COc1cc2[nH]c(C(=O)c3cnn(-c4ccc(Oc5ccccc5F)cc4C)c3N)cc2cc1NS(C)(=O)=O [Example 4-1-013, N-[2-[5-amino-1-[4-(2-fluorophenoxy)-2-methylphenyl]pyrazole-4-carbonyl]-6-methoxy-1H-indol-5-yl]methanesulfonamide]",IC50,human Lck enzyme,1.3 nM
same,IC50,human Src enzyme,2.6 nM
same,IC50,human Yes1 enzyme,0.45 nM
"COc1cc2[nH]c(C(=O)c3cnn(-c4cnc(Oc5ccccc5F)cc4C)c3N)cc2cc1NS(C)(=O)=O [Example 4-1-014, N-[2-[5-amino-1-[6-(2-fluorophenoxy)-4-methylpyridin-3-yl]pyrazole-4-carbonyl]-6-methoxy-1H-indol-5-yl]methanesulfonamide]",IC50,human Lck enzyme,1.4 nM
same,IC50,human Src enzyme,5.8 nM
same,IC50,human Yes1 enzyme,0.36 nM
"Cc1cc(Oc2ccccc2F)ccc1-n1ncc(C(=O)c2cc3cc(OCC(F)F)c(N4CCOCC4)cc3[nH]2)c1N [Example 4-1-015, [5-amino-1-[4-(2-fluorophenoxy)-2-methylphenyl]pyrazol-4-yl]-[5-(2,2-difluoroethoxy)-6-morpholin-4-yl-1H-indol-2-yl]methanone]",IC50,human Lck enzyme,10 nM
same,IC50,human Src enzyme,14 nM
same,IC50,human Yes1 enzyme,1 nM
"Cc1cc(Oc2c(F)cccc2F)ncc1-n1ncc(C(=O)c2cc3cc(OCC(F)F)c(N4CCOCC4)cc3[nH]2)c1N [Example 4-1-016, [5-amino-1-[6-(2,6-difluorophenoxy)-4-methylpyridin-3-yl]pyrazol-4-yl]-[5-(2,2-difluoroethoxy)-6-morpholin-4-yl-1H-indol-2-yl]methanone]",IC50,human Lck enzyme,7.5 nM
same,IC50,human Src enzyme,14 nM
same,IC50,human Yes1 enzyme,2.1 nM
"Cc1cc2cc(C(=O)c3cnn(-c4cnc(Oc5c(F)cccc5F)cc4C)c3N)[nH]c2cc1NS(=O)(=O)C1CC1 [Example 4-1-017, N-[2-[5-amino-1-[6-(2,6-difluorophenoxy)-4-methylpyridin-3-yl]pyrazole-4-carbonyl]-5-methyl-1H-indol-6-yl]cyclopropanesulfonamide]",IC50,human Lck enzyme,4.9 nM
same,IC50,human Src enzyme,100 nM
same,IC50,human Yes1 enzyme,3.1 nM
"Cc1cc(Oc2ccccc2F)ccc1-n1ncc(C(=O)c2cc3cc(C4CCN(C(C)C)CC4)c(F)cc3[nH]2)c1N [Example 4-2-001, [5-amino-1-[4-(2-fluorophenoxy)-2-methylphenyl]pyrazol-4-yl]-[6-fluoro-5-(1-propan-2-ylpiperidin-4-yl)-1H-indol-2-yl]methanone]",IC50,human Lck enzyme,3.1 nM
same,IC50,human Src enzyme,4.1 nM
same,IC50,human Yes1 enzyme,1 nM
"Cc1cc(Oc2cccc(F)c2F)ccc1-n1ncc(C(=O)c2cc3cc(C4CCN(C(C)C)CC4)c(F)cc3[nH]2)c1N [Example 4-2-002, [5-amino-1-[4-(2,3-difluorophenoxy)-2-methylphenyl]pyrazol-4-yl]-[6-fluoro-5-(1-propan-2-ylpiperidin-4-yl)-1H-indol-2-yl]methanone]",IC50,human Lck enzyme,3.7 nM
same,IC50,human Src enzyme,3.5 nM
same,IC50,human Yes1 enzyme,0.89 nM
"Cc1cc(Oc2cccc(Cl)c2)ccc1-n1ncc(C(=O)c2cc3cc(C4CCN(C(C)C)CC4)c(F)cc3[nH]2)c1N [Example 4-2-003, [5-amino-1-[4-(3-chlorophenoxy)-2-methylphenyl]pyrazol-4-yl]-[6-fluoro-5-(1-propan-2-ylpiperidin-4-yl)-1H-indol-2-yl]methanone]",IC50,human Lck enzyme,2.1 nM
same,IC50,human Src enzyme,6.4 nM
same,IC50,human Yes1 enzyme,1.4 nM
"CC(C)N1CCC(c2cc3cc(C(=O)c4cnn(-c5ccc(Oc6cccc(F)c6F)cc5)c4N)[nH]c3cc2F)CC1 [Example 4-2-004, [5-amino-1-[4-(2,3-difluorophenoxy)phenyl]pyrazol-4-yl]-[6-fluoro-5-(1-propan-2-ylpiperidin-4-yl)-1H-indol-2-yl]methanone]",IC50,human Lck enzyme,2.3 nM
same,IC50,human Src enzyme,7.5 nM
same,IC50,human Yes1 enzyme,0.93 nM
"CC(C)N1CCC(c2cc3cc(C(=O)c4cnn(-c5ccc(Oc6cccc(Cl)c6)cc5)c4N)[nH]c3cc2F)CC1 [Example 4-2-005, [5-amino-1-[4-(3-chlorophenoxy)phenyl]pyrazol-4-yl]-[6-fluoro-5-(1-propan-2-ylpiperidin-4-yl)-1H-indol-2-yl]methanone]",IC50,human Lck enzyme,5 nM
same,IC50,human Src enzyme,20 nM
same,IC50,human Yes1 enzyme,1.5 nM
"CC(C)N1CCC(c2cc3cc(C(=O)c4cnn(-c5ccc(Oc6cccc(F)c6)cc5)c4N)[nH]c3cc2F)CC1 [Example 4-2-006, [5-amino-1-[4-(3-fluorophenoxy)phenyl]pyrazol-4-yl]-[6-fluoro-5-(1-propan-2-ylpiperidin-4-yl)-1H-indol-2-yl]methanone]",IC50,human Lck enzyme,3.3 nM
same,IC50,human Src enzyme,12 nM
same,IC50,human Yes1 enzyme,1.3 nM
"CC(C)N1CCC(c2cc3cc(C(=O)c4cnn(-c5ccc(Oc6cccc(F)c6F)cc5F)c4N)[nH]c3cc2F)CC1 [Example 4-2-007, [5-amino-1-[4-(2,3-difluorophenoxy)-2-fluorophenyl]pyrazol-4-yl]-[6-fluoro-5-(1-propan-2-ylpiperidin-4-yl)-1H-indol-2-yl]methanone]",IC50,human Lck enzyme,3.6 nM
same,IC50,human Src enzyme,45 nM
same,IC50,human Yes1 enzyme,0.91 nM
"CC(C)N1CCC(c2cc3cc(C(=O)c4cnn(-c5ccc(Oc6ccccc6Cl)cc5F)c4N)[nH]c3cc2F)CC1 [Example 4-2-008, [5-amino-1-[4-(2-chlorophenoxy)-2-fluorophenyl]pyrazol-4-yl]-[6-fluoro-5-(1-propan-2-ylpiperidin-4-yl)-1H-indol-2-yl]methanone]",IC50,human Lck enzyme,2.5 nM
same,IC50,human Src enzyme,5.4 nM
same,IC50,human Yes1 enzyme,1.1 nM
